Reference: paper PMC7389528, “Anti-tubercular derivatives of rhein require activation by the monoglyceride lipase Rv0183” (The Cell Surface, 2020)
Converted amounts (≈) assume the structure as drawn. “And” between values parts separate entries of the source, which are not always exact repeats. Equal values may be shown once. “Also recorded” adds a separate entry of the source.

Tests used:
[1] = system: Mtb clinical isolate 12611; test: microbe, parasite or virus in culture; format: cell-based; conditions: Mycobacterium tuberculosis
[2] = system: Mtb clinical isolate 14231; test: microbe, parasite or virus in culture; format: cell-based; conditions: Mycobacterium tuberculosis
M. bovis BCG = format: cell-based
WT Rv0183 (BCG_0220) = molecular target: T1, WT Rv0183 (BCG_0220) (Mycobacterium tuberculosis, UniProt O07427); format: biochemical; conditions: 10 μM WT Rv0183, 5 μg compound, 37 °C, 1 h
T1 construct: poly-histidine (pET28a vector-encoded) (N); made in house; host or cells: E. coli SHuffle T7 (K12), pET28a

Rv0183-VAAQD137D = Rv0183-VAAQD137D (Mycobacterium tuberculosis, UniProt O07427, DEL137-140); format: biochemical, M. bovis BCG
Rv0183-S172P = Rv0183-S172P (Mycobacterium tuberculosis, UniProt O07427, S172P); format: biochemical, M. bovis BCG
[3] = system: M. bovis BCG HTB-04 mutant 2 (BCG_0220-S172P); format: cell-based

| SMILES | MIC [1] | MIC [2] | frequency of resistance (M. bovis BCG) | enzyme activity on compound (TLC) (WT Rv0183 (BCG_0220)) | enzyme activity on compound (TLC) (Rv0183-VAAQD137D) | enzyme activity on compound (TLC) (Rv0183-S172P) | IC50 [3] |
| --- | --- | --- | --- | --- | --- | --- | --- |
| O=C(OCCCCCl)c1cc(O)c2c(c1)C(=O)c1cccc(O)c1C2=O [HTB-03] | 2.64 µM (≈ 0.989 µg/mL) | 2.4 µM (≈ 0.899 µg/mL) | 83 × 10^-8 and 100 × 10^-8 | converted to rhein | minimal | no activity |  |
| CC(=O)Oc1cccc2c1C(=O)c1c(OC(C)=O)cc(C(=O)OCCCCCl)cc1C2=O [HTB-04] | 3.66 µM (≈ 1.68 µg/mL) | 2.04 µM (≈ 0.936 µg/mL) | 85 × 10^-8 | partially hydrolyzed to rhein; also recorded: inconclusive |  |  | 6.23 µM and 3.51 µM |
| NNC(=O)c1ccncc1 [INH, isoniazid, reference compound] | 142 µM (≈ 19.5 µg/mL) | > 292 µM |  |  |  |  |  |
| O=C(O)c1cc(O)c2c(c1)C(=O)c1cccc(O)c1C2=O [Rhein, rhein] |  |  |  | no apparent activity | no apparent activity | no apparent activity |  |
